Data from EP2623495B1, “Positively charged water-soluble prodrugs of n-arylanthranilic acids with very fast skin penetration rate” (Techfields Biochem Co. Ltd, priority 2006, dated 2008).
Values after ≈ are worked out from the molar mass of the structure shown. Read-outs that look alike come from different tables or passages of the source.

Columns and labels:
Solubility in water = details: for solubility: solubility in water
[1] = In vivo penetration through the skin of intact hairless mice, plasma levels by HPLC; details: for peak plasma levels / time to peak levels after application of the donor systems: 20% solution in 1 mL of isopropanol on 10 cm^2 of the backs of hairless mice; for peak plasma levels: plasma levels of parent drug; for time to peak levels after application of the donor systems: transdermal; for difference in peak plasma levels, prodrugs versus parent drugs: topical application, hairless mice
Excerpt: (§1) The in vivo rates of penetration of diethylaminoethyl 2-[(2,3-dimethylphenyl)amino]benzoate.AcOH, diethylaminoethyl 2-[(2,6-dichloro-3-methylphenyl)amino]benzoate.AcOH, diethylaminoethyl 2-[[(3-(trifluoromethyl)phenyl)amino]benzoate.AcOH, diethylaminoethyl 2-[[3-(trifluoromethyl)phenyl]amino]-3-pyridinecarboxylate.AcOH, and diethylaminoethyl 2-[[2-methyl-3-(trifluoromethyl)phenyl]amino]-3-pyridinecarboxylate.AcOH, mefenamic acid, meclofenamic acid, flufenamic acid, niflumic acid, and flunixin through the skin of intact hairless mice were compared. The donor consisted of a 20% solution of these compounds in 1 mL of isopropanol applied to a 10 cm^2 on the backs of the hairless mice. Plasma levels of mefenamic acid, meclofenamic acid, flufenamic acid, niflumic acid, and flunixin were determined by a specific high-performance liquid chromatography method.

[2] = In vitro penetration through human skin in modified Franz cells; type: in vitro ADME; details: for Apparent flux values: human skin 360-400 µm, donor 30% solution (prodrugs) or 30% suspension (parent drugs) in 2mL of pH 7.4 phosphate buffer (0.2M); for diffuses through human skin times faster than the parent drug: prodrug versus mefenamic acid, meclofenamic acid, flufenamic acid, niflumic acid, or flunixin
[3] = Analgetic activity: prolongation time of the pain threshold of a mouse tail (D'Amour-Smith Method); type: in vivo, mice; details: 50mg/kg transdermally, mouse tails exposed to heat; Figure 3
Experimental: Analgetic activity: The prolongation time of the pain threshold of a mouse tail was determined in accordance with the D'Amour-Smith Method (J. Pharmacol. Exp. Ther., 72, 74(1941)). After 50mg/kg of these prodrugs were administered transdermally, the tails of mice were exposed to heat and the prolongation time of pain threshold was determined.
Group A is the control group. • Figure 4. The rate of swelling (%) after a carrageenin injection. […] Group A is the control group. • Figure 5.

[4] = Gastroduodenal bleeding (fecal blood) after oral administration for 21 days; details: rats, orally 50 mg/kg per day for 21 days
[5] = Antipyretic activity after sterilized E. coli suspension as a pyrogen; type: in vivo; details: rats, 100 mg/kg transdermally 2 hours after E. coli pyrogen
Experimental: Antipyretic activity: Rats received a sterilized E. coli suspension as a pyrogen. […] The body temperature of rats was taken at 90 min. intervals before and after the administration of the test compounds. Table 2. Antipyretic Activity of prodrugs of arylanthranilic acids.

[6] = Analgetic activity: acetic acid writhing inhibition; type: in vivo; details: mice; for No. of Writhings: 100 mg/kg transdermally 60 minutes before acetic acid solution intraperitoneally, control group 35.0; for rate of writhings inhibition %: 100 mg/kg transdermally 60 minutes before acetic acid solution, based on the control group
Excerpt: The group A is the control group. Table 1. The rate of writhings inhibition by prodrugs of arylanthranilic acids

[7] = Acute toxicity, LD50 orally; details: mouse, in vivo, po; orally in mice; prodrugs
Excerpt: The acute toxicity of the prodrugs was investigated.

[8] = rat, in vivo, po, 50 mg/kg/day, 21 days
physchem = details: water
[9] = hairless, mouse, in vivo
Excerpt: as §1

[10] = taken orally; cited from earlier work
[11] = cited from earlier work
[12] = J. Pharm. Sci., 82, 227(1993); cited from earlier work
[13] = parent drugs, given for comparison

SMILES	peak plasma levels [1] [mg/mL]	time to peak levels after application of the donor systems [1] [min]	difference in peak plasma levels, prodrugs versus parent drugs [1]	Apparent flux values [2] [mg/cm^2/h]	diffuses through human skin times faster than the parent drug [2] [times]	analgesic activity, prolongation time of pain threshold (in words) [3]	average fecal blood [4]	solubility (Solubility in water) [mg/mL]	body temperature t=0 min. [5]	body temperature t=90 min. [5]	body temperature t=180 min. [5]	body temperature t=270 min. [5]	No. of Writhings [6]	rate of writhings inhibition % [6] [%]	LD50 [7] [mg/kg]	average fecal blood [8]	solubility (physchem) [mg/mL]	peak plasma levels [9] [mg/mL]	time to reach peak plasma level [10] [h]	also measured
CC(=O)O.CCN(CC)CCNC(=O)c1ccccc1Nc1cccc(C)c1C [N-diethylaminoethyl 2-[(2,3-dimethylphenyl)amino] benzoamide.AcOH]	–	–	–	–	–	–	–	–	–	–	–	–	–	–	–	–	–	–	–	solubility in water (Solubility in water): 400 mg/mL
CCN(CC)CCOC(=O)c1cccnc1Nc1cccc(C(F)(F)F)c1C [diethylaminoethyl 2-[[2-methyl-3-(trifluoromethyl)phenyl]amino]-3-pyridinecarboxylate.AcOH]	~2	~50	approximately 200 times	1.7	~200	shown analgesic activity nicely	none	> 450	37.23±0.06	36.69±0.06	36.52±0.08	36.40±0.07	15.7	55	1100	–	–	–	–	solubility in water (Solubility in water): 400 mg/mL (≈ 1010 mM)
O=C(O)c1ccccc1Nc1cccc(C(F)(F)F)c1 [flufenamic acid, 2-[[(3-trifluoromethyl)phenyl]amino]benzoic acid]	–	–	–	–	–	–	–	–	–	–	–	–	–	–	–	2-4 mg of fecal blood per gram of feces	< 0.1	~0.01	2 to 4	LD50 [11, 13]: 715 mg/kg
CCN(CC)CCNC(=O)c1ccccc1Nc1c(Cl)ccc(C)c1Cl [N-diethylaminoethyl 2-[(2,6-dichloro-3-methylphenyl)amino] benzoamide.AcOH]	–	–	–	–	–	–	–	400 (≈ 1010 mM)	–	–	–	–	–	–	–	–	–	–	–	–
CCN(CC)CCOC(=O)c1ccccc1Nc1c(Cl)ccc(C)c1Cl [diethylaminoethyl 2-[(2,6-dichloro-3-methylphenyl)amino]benzoate.AcOH]	~2	~50	approximately 200 times	2.0	~200	shown analgesic activity nicely	none	> 400	37.28±0.06	36.68±0.05	36.62±0.08	36.58±0.07	14.2	59	1000	–	–	–	–	–
Cc1cccc(Nc2ccccc2C(=O)O)c1C [mefenamic acid, 2-[(2,3-Dimethylphenyl)amino]benzoic acid]	–	–	–	–	–	–	–	–	–	–	–	–	–	–	–	2-4 mg of fecal blood per gram of feces	< 0.1	~0.01	2 to 4	LD50 ([11]; mouse, in vivo): 600 mg/kg
O=C(O)c1cccnc1Nc1cccc(C(F)(F)F)c1 [niflumic acid, 2-[[3-(trifluoromethyl)phenyl]amino]-3-pyridinecarboxylic acid]	–	–	–	–	–	–	–	–	–	–	–	–	–	–	–	2-4 mg of fecal blood per gram of feces	< 0.1	~0.01	2 to 4	LD50 [11, 13]: 650 mg/kg
CN(C)CCCC(=O)O[C@H]1CC[C@H]2[C@@H]3CCC4=CC(=O)CC[C@]4(C)[C@H]3CC[C@]12C.Cl [TSBH, testosteronyl-4-dimethylaminobutyrate.HCl]	–	–	–	–	–	–	–	–	–	–	–	–	–	–	–	–	–	–	–	diffuses through human skin times faster than the drug (TS) itself [12]: ~60 times
Cc1c(Nc2ncccc2C(=O)O)cccc1C(F)(F)F [flunixin, 2-[[2-methyl-3-(trifluoromethyl)phenyl]amino]-3-pyridinecarboxylic acid]	–	–	–	–	–	–	–	–	–	–	–	–	–	–	–	2-4 mg of fecal blood per gram of feces	< 0.1	~0.01	2 to 4	–
Cc1ccc(Cl)c(Nc2ccccc2C(=O)O)c1Cl [meclofenamic acid, 2-[(2,6-dichloro-3-methylphenyl)amino]benzoic acid]	–	–	–	–	–	–	–	–	–	–	–	–	–	–	–	2-4 mg of fecal blood per gram of feces	< 0.1	~0.01	2 to 4	–
CCN(CC)CCOC(=O)c1cccnc1Nc1cccc(C(F)(F)F)c1 [diethylaminoethyl 2-[[3-(trifluoromethyl)phenyl]amino]-3-pyridinecarboxylate.AcOH]	~2	~50	approximately 200 times	1.8	~200	shown analgesic activity nicely	none	> 450	37.25±0.07	36.82±0.06	36.70±0.05	36.50±0.08	15.2	57	750	–	–	–	–	solubility in water (Solubility in water): 400 mg/mL (≈ 1050 mM)
CCN(CC)CCOC(=O)c1ccccc1Nc1cccc(C(F)(F)F)c1 [diethylaminoethyl 2-[[(3-(trifluoromethyl)phenyl)amino]benzoate.AcOH]	~2	~50	approximately 200 times	2.2	~200	shown analgesic activity nicely	none	> 400	37.27±0.06	36.76±0.05	36.65±0.08	36.49±0.07	16.1	54	800	–	–	–	–	–
CCN(CC)CCOC(=O)c1ccccc1Nc1cccc(C)c1C [diethylaminoethyl 2-[(2,3-dimethylphenyl)amino]benzoate.AcOH]	~2	~50	approximately 200 times	2.1	~200	shown analgesic activity nicely	none	> 400	37.35±0.06	36.71±0.05	36.60±0.08	36.59±0.07	15.6	55	900	–	–	–	–	–
